Test results as given in US12492179B2, “Substituted ethylamine fused heterocyclic mescaline derivatives” (Enveric Biosciences Canada Inc., priority 2022, dated 2025).

What was measured:
[1] = biological target: T1, serotonin transporter (SERT) (Homo sapiens, UniProt P31645); format: binding
T1 construct: host or cells: CHO

D2 receptor = biological target: T2, D2 receptor (Homo sapiens, UniProt P14416); test: Eurofins Cerep competition binding assay at D2 receptor; details: test ligand 10 μM; [3H]methylspiperone 0.3 nM; recombinant receptor, HEK-293 membranes
T2 construct: host or cells: HEK-293
T2 sequence (P14416 1-414 isoform P14416-2): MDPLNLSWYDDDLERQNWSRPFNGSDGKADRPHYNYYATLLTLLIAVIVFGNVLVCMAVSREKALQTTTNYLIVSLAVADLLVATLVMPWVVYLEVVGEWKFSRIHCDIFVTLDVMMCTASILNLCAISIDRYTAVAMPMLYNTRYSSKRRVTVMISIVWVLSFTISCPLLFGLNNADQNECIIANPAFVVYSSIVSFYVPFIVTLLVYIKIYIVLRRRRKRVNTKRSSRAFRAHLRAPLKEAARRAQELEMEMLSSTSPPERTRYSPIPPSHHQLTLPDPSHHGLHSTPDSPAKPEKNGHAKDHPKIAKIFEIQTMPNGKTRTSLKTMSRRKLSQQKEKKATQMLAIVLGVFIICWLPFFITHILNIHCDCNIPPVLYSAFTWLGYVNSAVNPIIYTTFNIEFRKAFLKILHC

5-HT1A receptor [2] = biological target: T3, 5-HT1A receptor (Homo sapiens, UniProt P08908); test: 5-HT1A receptor radioligand competition assay (SPA, 8-hydroxy-DPAT); format: binding; details: for 5-HT1A receptor binding, in words (competition curves FIGS. 22B-22L): ligand 3 nM to 1 mM
T3 construct: purchased Perkin Elmer 6110501400UA
T3 sequence (P08908 1-422): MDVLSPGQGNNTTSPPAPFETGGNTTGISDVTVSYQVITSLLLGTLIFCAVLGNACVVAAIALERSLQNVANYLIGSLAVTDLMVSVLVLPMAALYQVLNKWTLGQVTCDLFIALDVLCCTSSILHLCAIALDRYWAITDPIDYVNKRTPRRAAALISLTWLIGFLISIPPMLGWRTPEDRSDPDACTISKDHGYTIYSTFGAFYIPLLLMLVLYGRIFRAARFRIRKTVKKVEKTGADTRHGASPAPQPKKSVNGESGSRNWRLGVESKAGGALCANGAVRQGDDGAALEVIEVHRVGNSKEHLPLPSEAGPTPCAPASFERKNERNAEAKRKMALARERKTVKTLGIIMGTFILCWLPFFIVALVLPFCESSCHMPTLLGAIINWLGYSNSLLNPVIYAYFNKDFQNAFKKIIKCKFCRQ

5-HT1A receptor [3] = biological target: T3, 5-HT1A receptor; test: Eurofins Cerep competition binding assay at 5-HT1A receptor; details: test ligand 10 μM; [3H]8-OH-DPAT 0.5 nM; recombinant receptor, HEK-293 membranes
5-HT2A receptor [4] = biological target: T4, 5-HT2A receptor (Homo sapiens, UniProt P28223); format: binding; details: test ligand 10 μM; [125I](±)DOI 0.1 nM; recombinant receptor, HEK-293 membranes
T4 construct: host or cells: HEK-293
T4 sequence (P28223 whole entry): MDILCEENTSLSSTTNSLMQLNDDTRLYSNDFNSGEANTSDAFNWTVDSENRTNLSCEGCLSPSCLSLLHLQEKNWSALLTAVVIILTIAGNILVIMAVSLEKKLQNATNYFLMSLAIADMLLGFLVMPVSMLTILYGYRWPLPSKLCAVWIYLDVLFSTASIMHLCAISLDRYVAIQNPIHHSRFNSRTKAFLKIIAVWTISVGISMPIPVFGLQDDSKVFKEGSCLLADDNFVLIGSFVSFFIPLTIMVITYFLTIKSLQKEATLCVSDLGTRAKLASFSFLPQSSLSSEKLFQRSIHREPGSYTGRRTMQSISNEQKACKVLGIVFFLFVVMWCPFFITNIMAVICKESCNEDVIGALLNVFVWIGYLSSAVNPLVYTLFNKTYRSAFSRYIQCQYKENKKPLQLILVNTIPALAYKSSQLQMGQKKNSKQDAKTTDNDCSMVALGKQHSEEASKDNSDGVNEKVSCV

5-HT2B receptor = biological target: T5, 5-HT2B receptor (Homo sapiens, UniProt P41595); test: Eurofins Cerep competition binding assay at 5-HT2B receptor; details: test ligand 10 μM; [3H]mesulergine 2 nM; recombinant receptor, CHO membranes
T5 construct: host or cells: CHO
T5 sequence (P41595 whole entry): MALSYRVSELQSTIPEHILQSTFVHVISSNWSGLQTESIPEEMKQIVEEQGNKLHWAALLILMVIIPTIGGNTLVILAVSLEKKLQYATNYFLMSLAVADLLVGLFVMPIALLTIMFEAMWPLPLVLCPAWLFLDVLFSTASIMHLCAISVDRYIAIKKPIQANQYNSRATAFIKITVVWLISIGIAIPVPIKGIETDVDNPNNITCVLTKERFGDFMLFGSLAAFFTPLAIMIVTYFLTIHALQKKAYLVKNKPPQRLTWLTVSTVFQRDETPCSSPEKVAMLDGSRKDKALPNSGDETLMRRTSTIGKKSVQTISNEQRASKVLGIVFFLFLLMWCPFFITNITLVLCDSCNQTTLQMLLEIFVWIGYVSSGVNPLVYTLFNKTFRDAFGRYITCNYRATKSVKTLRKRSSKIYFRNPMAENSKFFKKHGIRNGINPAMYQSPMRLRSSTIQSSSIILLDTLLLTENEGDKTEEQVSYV

5-HT2C receptor = biological target: T6, 5-HT2C receptor (Homo sapiens, UniProt P28335); test: Eurofins Cerep competition binding assay at 5-HT2C receptor; details: test ligand 10 μM; [125I](±)DOI 0.1 nM; recombinant receptor, HEK-293 membranes
T6 construct: host or cells: HEK-293
T6 sequence (P28335 33-458): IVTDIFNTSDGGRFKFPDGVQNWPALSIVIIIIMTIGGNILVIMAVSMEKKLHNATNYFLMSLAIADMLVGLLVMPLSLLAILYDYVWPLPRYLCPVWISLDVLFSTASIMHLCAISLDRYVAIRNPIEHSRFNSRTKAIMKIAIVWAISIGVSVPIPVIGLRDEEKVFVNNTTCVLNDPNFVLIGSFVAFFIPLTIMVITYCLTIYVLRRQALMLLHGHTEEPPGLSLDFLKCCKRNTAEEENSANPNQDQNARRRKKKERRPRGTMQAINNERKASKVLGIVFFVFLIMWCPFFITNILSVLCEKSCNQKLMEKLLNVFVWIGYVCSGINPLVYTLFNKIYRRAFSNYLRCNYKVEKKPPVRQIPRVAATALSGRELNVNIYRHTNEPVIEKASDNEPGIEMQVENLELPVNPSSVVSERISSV

alpha2A receptor = biological target: T7, alpha2A receptor (Homo sapiens, UniProt P08913); test: Eurofins Cerep competition binding assay at alpha2A receptor; details: test ligand 10 μM; [3H]RX 821002 1 nM; recombinant receptor, CHO membranes; read-out: α-2A, percent of control-specific binding
T7 construct: host or cells: CHO
T7 sequence (P08913 1-465): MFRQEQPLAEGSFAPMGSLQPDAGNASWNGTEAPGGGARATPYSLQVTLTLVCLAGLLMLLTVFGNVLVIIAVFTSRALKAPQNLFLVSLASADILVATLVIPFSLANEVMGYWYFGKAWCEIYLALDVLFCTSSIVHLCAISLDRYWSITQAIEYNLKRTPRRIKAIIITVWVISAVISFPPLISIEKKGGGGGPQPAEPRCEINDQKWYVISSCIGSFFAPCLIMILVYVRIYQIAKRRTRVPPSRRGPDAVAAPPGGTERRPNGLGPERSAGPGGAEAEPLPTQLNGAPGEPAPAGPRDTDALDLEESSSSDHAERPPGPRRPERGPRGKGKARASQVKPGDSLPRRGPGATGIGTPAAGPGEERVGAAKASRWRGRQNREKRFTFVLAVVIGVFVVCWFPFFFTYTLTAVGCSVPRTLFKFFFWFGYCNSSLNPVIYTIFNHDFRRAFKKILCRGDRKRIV

D3 receptor = biological target: T8, D3 receptor (Homo sapiens, UniProt P35462); test: Eurofins Cerep competition binding assay at D3 receptor; details: test ligand 10 μM; [3H]methylspiperone […]; recombinant receptor, CHO membranes
T8 construct: host or cells: CHO
T8 sequence (P35462 whole entry): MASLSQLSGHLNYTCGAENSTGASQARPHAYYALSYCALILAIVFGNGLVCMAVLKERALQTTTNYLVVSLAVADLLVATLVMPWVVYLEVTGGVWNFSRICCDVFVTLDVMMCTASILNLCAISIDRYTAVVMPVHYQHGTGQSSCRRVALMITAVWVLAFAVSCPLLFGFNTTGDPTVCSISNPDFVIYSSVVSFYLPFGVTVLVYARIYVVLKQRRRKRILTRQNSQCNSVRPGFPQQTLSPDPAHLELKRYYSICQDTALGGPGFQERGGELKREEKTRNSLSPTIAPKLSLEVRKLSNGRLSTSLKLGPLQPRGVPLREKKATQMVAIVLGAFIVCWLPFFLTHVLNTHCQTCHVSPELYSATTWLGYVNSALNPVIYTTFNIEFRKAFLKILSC

MT1 receptor = biological target: T9, MT1 receptor (Homo sapiens, UniProt P48039); test: Eurofins Cerep competition binding assay at MT1 receptor; details: test ligand 10 μM; [125I]2-iodomelatonin 0.01 nM; recombinant receptor, CHO membranes
T9 construct: host or cells: CHO
T9 sequence (P48039 whole entry): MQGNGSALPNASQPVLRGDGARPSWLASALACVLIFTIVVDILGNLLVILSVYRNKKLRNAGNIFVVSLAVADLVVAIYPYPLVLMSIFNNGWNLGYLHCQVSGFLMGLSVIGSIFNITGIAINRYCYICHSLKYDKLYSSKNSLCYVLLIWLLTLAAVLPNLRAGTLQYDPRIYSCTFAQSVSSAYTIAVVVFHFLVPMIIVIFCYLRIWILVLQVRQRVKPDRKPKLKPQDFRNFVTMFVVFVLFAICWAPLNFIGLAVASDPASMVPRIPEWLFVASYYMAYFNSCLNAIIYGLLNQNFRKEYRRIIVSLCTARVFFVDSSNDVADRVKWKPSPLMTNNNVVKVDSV

[5] = biological target: T10, dopamine transporter (DAT) (Homo sapiens, UniProt Q01959); test: Eurofins Cerep competition binding assay at dopamine transporter; details: test ligand 10 μM; [3H]BTCP 4 nM; recombinant transporter, CHO membranes
T10 construct: host or cells: CHO
T10 sequence (Q01959 whole entry): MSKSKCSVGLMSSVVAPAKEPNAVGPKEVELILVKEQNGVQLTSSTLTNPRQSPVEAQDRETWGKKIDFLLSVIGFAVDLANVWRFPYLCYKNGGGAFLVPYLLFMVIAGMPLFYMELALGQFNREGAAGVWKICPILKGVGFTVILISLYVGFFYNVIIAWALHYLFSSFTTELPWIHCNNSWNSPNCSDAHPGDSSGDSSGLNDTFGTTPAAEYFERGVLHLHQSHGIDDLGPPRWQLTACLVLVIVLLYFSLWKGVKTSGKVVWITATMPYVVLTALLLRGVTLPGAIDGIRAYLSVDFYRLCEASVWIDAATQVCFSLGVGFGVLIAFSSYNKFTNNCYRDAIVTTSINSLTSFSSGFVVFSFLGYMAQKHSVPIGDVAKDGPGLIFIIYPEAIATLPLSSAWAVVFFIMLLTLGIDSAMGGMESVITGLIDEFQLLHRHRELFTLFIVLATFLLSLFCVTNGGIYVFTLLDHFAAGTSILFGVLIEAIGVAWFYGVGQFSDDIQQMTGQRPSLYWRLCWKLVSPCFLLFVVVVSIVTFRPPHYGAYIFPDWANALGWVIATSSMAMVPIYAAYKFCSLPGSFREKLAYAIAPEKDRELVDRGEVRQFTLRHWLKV

[6] = biological target: T11, norepinephrine transporter (NET) (Homo sapiens, UniProt P23975); test: Eurofins Cerep competition binding assay at norepinephrine transporter; details: test ligand 10 μM; [3H]nisoxetine 1 nM; recombinant transporter, CHO membranes
T11 construct: host or cells: CHO
T11 sequence (P23975 whole entry): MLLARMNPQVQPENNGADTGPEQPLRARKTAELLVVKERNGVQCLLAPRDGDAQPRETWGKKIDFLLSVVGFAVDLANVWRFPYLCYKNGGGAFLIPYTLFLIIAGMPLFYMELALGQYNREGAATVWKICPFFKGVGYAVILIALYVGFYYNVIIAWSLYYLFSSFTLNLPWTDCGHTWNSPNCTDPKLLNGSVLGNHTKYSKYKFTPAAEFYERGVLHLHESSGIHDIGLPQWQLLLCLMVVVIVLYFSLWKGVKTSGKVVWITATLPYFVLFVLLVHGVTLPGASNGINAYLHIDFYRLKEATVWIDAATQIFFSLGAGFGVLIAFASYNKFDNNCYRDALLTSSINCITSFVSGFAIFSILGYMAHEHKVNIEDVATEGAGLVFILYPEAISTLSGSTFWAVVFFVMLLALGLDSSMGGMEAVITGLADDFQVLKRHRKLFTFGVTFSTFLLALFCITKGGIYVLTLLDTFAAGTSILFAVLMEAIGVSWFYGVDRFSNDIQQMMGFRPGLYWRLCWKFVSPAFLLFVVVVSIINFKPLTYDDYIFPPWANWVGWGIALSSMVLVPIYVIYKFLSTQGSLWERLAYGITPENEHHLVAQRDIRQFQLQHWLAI

5-HT2A receptor [7] = biological target: T4, 5-HT2A receptor; test: 5-HT2A receptor radioligand competition assay (SPA, [3H]ketanserin); format: binding; details: for Ki: SPA competition, 1 nM [3H]ketanserin, membranes containing 5-HT2A; for 5-HT2A receptor binding, in words (competition curves FIGS. 23B-23H): ligand 3 nM to 1 mM

T1 sequence (P31645 whole entry): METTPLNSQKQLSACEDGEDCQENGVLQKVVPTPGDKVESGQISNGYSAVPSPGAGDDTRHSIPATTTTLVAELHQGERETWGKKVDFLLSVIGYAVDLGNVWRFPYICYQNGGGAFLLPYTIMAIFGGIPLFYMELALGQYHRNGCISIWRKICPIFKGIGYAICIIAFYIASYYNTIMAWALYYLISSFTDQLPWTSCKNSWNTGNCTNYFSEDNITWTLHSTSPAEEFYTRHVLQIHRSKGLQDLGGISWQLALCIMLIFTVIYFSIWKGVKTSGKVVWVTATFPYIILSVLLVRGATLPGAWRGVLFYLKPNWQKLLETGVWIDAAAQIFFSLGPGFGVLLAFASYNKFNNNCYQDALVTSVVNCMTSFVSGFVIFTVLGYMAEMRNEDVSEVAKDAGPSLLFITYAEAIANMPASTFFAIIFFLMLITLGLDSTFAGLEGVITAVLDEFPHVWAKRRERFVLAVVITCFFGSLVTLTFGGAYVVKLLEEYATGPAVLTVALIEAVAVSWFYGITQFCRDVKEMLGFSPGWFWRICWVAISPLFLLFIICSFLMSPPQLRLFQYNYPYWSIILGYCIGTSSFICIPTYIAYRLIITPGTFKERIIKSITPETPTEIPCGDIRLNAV

## CN(C)CCCN1c2ccccc2CCc2ccccc21 [Imipramine, imipramine, reference compound]
[1]
  SERT, percent of control-specific binding: 98%

## COc1cc(CC(C)N)c(OC)cc1Br (stereo not drawn) [DOB, reference compound]
D2 receptor
  D2, percent of control-specific binding: 9%

## CC(CN1CCCC1)c1ccc2c(c1)OCO2 (racemic) [Bx(II)]
5-HT1A receptor [2]
  Ki: 14 µM
5-HT1A receptor [3]
  HT1A, percent of control-specific binding: 36%
5-HT2A receptor [4]
  HT2A, percent of control-specific binding: 10%
5-HT2B receptor
  HT2B, percent of control-specific binding: 38%
5-HT2C receptor
  HT2C, percent of control-specific binding: 52%
alpha2A receptor
  inhibition at 10 µM: 19%
D2 receptor
  D2, percent of control-specific binding: 6%
D3 receptor
  D3, percent of control-specific binding: 14%
MT1 receptor
  MT1, percent of control-specific binding: 0%
[1]
  SERT, percent of control-specific binding: 81%
[5]
  DAT, percent of control-specific binding: 79%
[6]
  NET, percent of control-specific binding: 9%

## CCOc1c(OC)cc(CCN)cc1OC [escaline]
5-HT1A receptor [2]
  5-HT1A receptor binding, in words (competition curves FIGS. 22B-22L): binding to 5-HT1A receptor
D2 receptor
  D2, percent of control-specific binding: 5%

## c1cc2c(cc1CC1=NCCO1)OCO2 [C(III)]
5-HT1A receptor [2]
  Ki: 31 µM
5-HT1A receptor [3]
  HT1A, percent of control-specific binding: 24%
5-HT2A receptor [4]
  HT2A, percent of control-specific binding: 0%
5-HT2B receptor
  HT2B, percent of control-specific binding: 19%
5-HT2C receptor
  HT2C, percent of control-specific binding: 12%
alpha2A receptor
  inhibition at 10 µM: 19%
D2 receptor
  D2, percent of control-specific binding: 0%
D3 receptor
  D3, percent of control-specific binding: 10%
MT1 receptor
  MT1, percent of control-specific binding: 12%
[1]
  SERT, percent of control-specific binding: 0%
[5]
  DAT, percent of control-specific binding: 19%
[6]
  NET, percent of control-specific binding: 0%

## CC(CN(C)Cc1ccccc1)c1ccc2c(c1)OCO2 (racemic) [Bx(V)]
5-HT1A receptor [2]
  Ki: 45 µM
  5-HT1A receptor binding, in words (competition curves FIGS. 22B-22L): above levels observed for negative controls
5-HT2A receptor [7]
  Ki: 63 µM
  5-HT2A receptor binding, in words (competition curves FIGS. 23B-23H): above levels observed for negative control
5-HT1A receptor [3]
  HT1A, percent of control-specific binding: 17%
5-HT2A receptor [4]
  HT2A, percent of control-specific binding: 13%
5-HT2B receptor
  HT2B, percent of control-specific binding: 41%
5-HT2C receptor
  HT2C, percent of control-specific binding: 42%
alpha2A receptor
  inhibition at 10 µM: 24%
D2 receptor
  D2, percent of control-specific binding: 12%
D3 receptor
  D3, percent of control-specific binding: 19%
MT1 receptor
  MT1, percent of control-specific binding: 9%
[1]
  SERT, percent of control-specific binding: 46%
[5]
  DAT, percent of control-specific binding: 78%
[6]
  NET, percent of control-specific binding: 47%

## CN(C)CCc1c[nH]c2cccc(O)c12 [psilocin, reference compound]
5-HT2A receptor [7]
  5-HT2A receptor binding, in words (competition curves FIGS. 23B-23H): binding at the 5-HT2A receptor

## CCCOc1c(OC)cc(CCN)cc1OC [proscaline, reference compound]
5-HT1A receptor [2]
  5-HT1A receptor binding, in words (competition curves FIGS. 22B-22L): binding to 5-HT1A receptor

## CC(C(=O)N(C)Cc1ccccc1)c1ccc2c(c1)OCO2 (racemic) [Ax(V)]
5-HT1A receptor [2]
  Ki: 186 µM
5-HT2A receptor [7]
  Ki: 83 µM
5-HT1A receptor [3]
  HT1A, percent of control-specific binding: 2%
5-HT2A receptor [4]
  HT2A, percent of control-specific binding: 2%
5-HT2B receptor
  HT2B, percent of control-specific binding: 30%
5-HT2C receptor
  HT2C, percent of control-specific binding: 16%
alpha2A receptor
  inhibition at 10 µM: 0%
D2 receptor
  D2, percent of control-specific binding: 0%
D3 receptor
  D3, percent of control-specific binding: 8%
MT1 receptor
  MT1, percent of control-specific binding: 55%
[1]
  SERT, percent of control-specific binding: 0%
[5]
  DAT, percent of control-specific binding: 71%
[6]
  NET, percent of control-specific binding: 13%

## CC(C(=O)N1CCCC1)c1ccc2c(c1)OCO2 (racemic) [Ax(II)]
5-HT1A receptor [2]
  Ki: 108 µM
5-HT2A receptor [7]
  Ki: 591 µM
5-HT1A receptor [3]
  HT1A, percent of control-specific binding: 3%
5-HT2A receptor [4]
  HT2A, percent of control-specific binding: 0%
5-HT2B receptor
  HT2B, percent of control-specific binding: 5%
5-HT2C receptor
  HT2C, percent of control-specific binding: 0%
alpha2A receptor
  inhibition at 10 µM: 0%
D2 receptor
  D2, percent of control-specific binding: 0%
D3 receptor
  D3, percent of control-specific binding: 0%
MT1 receptor
  MT1, percent of control-specific binding: 5%
[1]
  SERT, percent of control-specific binding: 2%
[5]
  DAT, percent of control-specific binding: 5%
[6]
  NET, percent of control-specific binding: 0%

## N[C@@H](Cc1c[nH]c2ccccc12)C(=O)O [tryptophan, reference compound]
5-HT1A receptor [2]
  5-HT1A receptor binding, in words (competition curves FIGS. 22B-22L): no binding
5-HT2A receptor [7]
  5-HT2A receptor binding, in words (competition curves FIGS. 23B-23H): lack of binding at the 5-HT2A receptor

## COc1cc(CCN)c(OC)cc1Br [2C-B, reference compound]
D2 receptor
  D2, percent of control-specific binding: 42%

## CNC(C)Cc1ccc2c(c1)OCO2 (stereo not drawn) [MDMA, reference compound]
D2 receptor
  D2, percent of control-specific binding: −10%
